# Measured values: patent US20010014699A1, “Benflumetol derivatives, intermediates thereof and their use against parasitical protozoa and trematodes” (priority 1998, published 2001)
# Where two headings read alike, the source gives them in different places.
# What was measured:
# [1] = cited from earlier work
# [2] = system: Plasmodium falciparum isolates; test: WHO Standard Microtest, inhibition of schizont maturation in vitro; format: cell-based; conditions: for inhibition at 0.003 µM: 3.0 nmol/l; for inhibition at 0.01 µM: 10.0 nmol/l; for inhibition at 0.03 µM: 30.0 nmol/l; for inhibition at 0.1 µM: 100.0 nmol/l; for inhibition at 0.3 µM: 300.0 nmol/l; for inhibition at 1 µM: 1000.0 nmol/l; for inhibition at 3 µM: 3000.0 nmol/l; for EC50: probit analysis, 95% confidence limits; for power ratio (PR) between benflumetol and the compound: Litchfield & Wilcoxon comparison; for efficacy compared with benflumetol (in words): Plasmodium falciparum in vitro
# Method: The study is carried out in Mae Sot, a province in north-west Thailand close to Myanmar. […] The test for efficacy is carried out with blood samples obtained by finger pricks (in accordance with the WHO Standard Microtest Method for studying the inhibition of schizont maturation, see Wemsdorfer, W. H., and Payne, D. (1988), Drug Sensitivity Tests. In: Wemsdorfer, W. H., and McGregor, I. A. (Editors), Malaria: Principles and practice of malariology; Churchill Livingstone, Edinburgh). The tests are carried out in parallel with benflumetol and the 2-alkylamino-1-[2,7-dichloro-9-(4-chlorobenzylidene]-9H-fluoren-4-yl)ethanols in concentrations between 3 and 3000 nmol/l in blood medium mixture (BMM) using materials from the WHO Standard Test Kit supplied by the WHO Regional Office for the Western Pacific, Manila, except for the predosed microtitre plates, which are prepared in the laboratory of the institute of Specific Prophylaxis and Tropical Medicine, University of Vienna, Austria.
# The procedure for determining parasitaemia before incubation follows the WHO Standard Method (WHO (1991), Basic malaria microscopy. Part I; WHO, Geneva). The schizont titres are determined as described in Wemsdorfer and Payne (1988) (see above).
# The statistical analysis of the data was carried out according to log-concentration/response probit analysis (Litchfield & Wilcoxon (1949), J. Exp. Pharmacol. 89, 99-113). This method is based on the least-squares procedure and is the most widely accepted method for the analysis of dose-response studies. A computer adaptation of the method (Wernsdorfer & Wernsdorfer, Mitteilungen der Österreichischen Gesellschaft für Tropenmedizin und Parasitologie 17, 221-228) is used for data processing.
# [3] = cited from earlier work; remark: listed apart in the source
# [4] = taken with foods having a high fat content; cited from earlier work
# [5] = Plasmodium falciparum, 34-isolate test series (Examples 6.2 and 6.3)
# [6] = Plasmodium falciparum, 58 isolates (Example 6.1)
# [7] = Plasmodium falciparum, 34-isolate test series (Examples 6.2 and 6.3), read-out: EC50: mean value
Compound,concentration at which none of the isolates shows schizont maturation ([2]; 34 isolates),"inhibition at 0.003 µM [2, 5] [%]","inhibition at 0.01 µM [2, 5] [%]","inhibition at 0.03 µM [2, 5] [%]","inhibition at 0.1 µM [2, 5] [%]","inhibition at 0.3 µM [2, 5] [%]","inhibition at 1 µM [2, 5] [%]","inhibition at 3 µM [2, 5] [%]","EC50 [2, 7] [nM]",power ratio (PR) between benflumetol and the compound ([2]; 34 isolates),efficacy compared with benflumetol (in words) [2],"isolates completely inhibited ([2]; at 100 nml/l, 34 isolates) [%]",also measured
CCN(CC)CCCC(C)Nc1ccnc2cc(Cl)ccc12 (stereo not shown) [Chloroquine],–,–,–,–,–,–,–,–,–,–,–,–,half-life (in words) ([1]; in vivo): very long half-life
"CCCCN(CCCC)CC(O)c1cc(Cl)cc2c1-c1ccc(Cl)cc1C2=Cc1ccc(Cl)cc1 (stereo not shown) [benflumetol, 2-(di-n-butylamino)-1-[2,7-dichloro-9-(4-chlorobenzylidene)-9H-fluoren-4-yl]ethanol]",above 3000 nmol/l,7.16,18.4,42.8,90.7,96.2,99.9,100,28,–,–,–,"concentration at which none of the isolates shows schizont maturation ([2]; 58 isolates): above 300 nmol/l; inhibition at 0.003 µM [2, 6]: 7.14%; inhibition at 0.01 µM [2, 6]: 20.4%; inhibition at 0.03 µM [2, 6]: 47.2%; inhibition at 0.1 µM [2, 6]: 90.7%; inhibition at 0.3 µM [2, 6]: 99.8%; inhibition at 1 µM [2, 6]: 100%; inhibition at 3 µM [2, 6]: 100%; EC50 ([2]; Plasmodium falciparum, read-out: EC50: mean value (50% inhibition versus controls not given active substance), 58 isolates (Example 6.1)): 24.4 nM; isolates completely inhibited ([2]; at 300 nmol/l, 34 isolates): 96%; isolates completely inhibited ([2]; at 300 nmol/l, 58 isolates): 97%; EC50 ([2]; read-out: EC50: mean value (50% inhibition versus controls not given active substance), 58 isolates (Example 6.1)): 24.4 nM; plasma half-life ([1]; in patients): 96 to 140 h; solubility (in words) [3]: not very good; absorption with foods having a high fat content, times higher than in the absence of such fatty foods [4]: up to 16 times"
"CNCC(O)c1cc(Cl)cc2c1-c1ccc(Cl)cc1C2=Cc1ccc(Cl)cc1 (stereo not shown) [5a, 2-Methylamino-1-[2,7-dichloro-9-(4-chlorobenzylidene)-9H-fluoren-4yl]ethanol]",1000 nmol/L,13.1,51.9,83.1,95.8,97.1,100,100,10.5,2.8898,about four times as effective as benflumetol,96,EC99 of the compound as fraction of that for benflumetol ([2]; 34 isolates): about one fifth
"CO[C@H]1O[C@@H]2O[C@@]3(C)CC[C@H]4[C@H](C)CC[C@@H]([C@H]1C)[C@@]24OO3 [artemether, [3R-(3α, 5αβ, 6β, 8αβ, 9α, 10α, 12β,-12aR)]-decahydro-10-methoxy-3,6,9-trimethyl-3,12-epoxy-12H-pyrano[4,3-j]-1,2-benzodioxepin]",–,–,–,–,–,–,–,–,–,–,–,–,half-life ([1]; in plasma): 2 h
"CCCCCNCC(O)c1cc(Cl)cc2c1-c1ccc(Cl)cc1C2=Cc1ccc(Cl)cc1 (stereo not shown) [5c, 2-n-Pentylamino-1-[2,7-dichloro-9-(4-chlorobenzylidene)-9H-fluoren-4yl]ethanol]",3000 nmol/L,6.83,36.4,81.2,94.8,97,99.6,100,14.4,2.0724,about five times as effective as benflumetol,95,"EC99 of the compound, times lower than that for benflumetol ([2]; 34 isolates): about 4 times"
